Measured values taken from patent publication US9416181B2, “Compositions for cell culture and methods of using the same” (AbbVie Inc., priority 2013, dated 2016).

System: Cell Line 2 (CHO) expressing Antibody 2
Experiment: Acidic species variants (WCX-10) of Antibody 2, Cell Line 2 lab-scale bioreactor culture
Assay type: cell-based, Chinese Hamster
Conditions: 0.1 g/L
Protocol: Four different recombinant Chinese Hamster Ovary (CHO) cell lines expressing four different recombinant glycoproteins were evaluated in either shaker flask culture, or 3 L laboratory scale bioreactors. Cell Line 1 was genetically engineered to express Antibody 1, Cell Line 2 was genetically engineered to express Antibody 2, Cell Line 3 was genetically engineered to express dual variable domain immunoglobulin 1 (DVD1) and Cell Line 4 was genetically engineered to express dual variable domain immunoglobulin 2 (DVD2).
Charge Heterogeneity via Weak Cation Exchange Chromatography-Samples were analyzed using an HPLC system equipped with a ProPac WCX-10 analytical column (Thermo Scientific, Sunnyvale, Calif.). Approximately 100 μg of sample was loaded in 6% Buffer B (10 mM sodium phosphate, 500 mM NaCl, pH 5.5) and 94% Buffer A (10 mM sodium phosphate, pH 7.5). The column was run at a flow rate of 1.0 mL/min. The protein was eluted from the column by increasing the buffer B composition from 6% to 16% over 20 minutes. The protein peaks were measured using UV absorbance at 280 nm as the peaks eluted from the column. The column was regenerated using 100% buffer B followed be a re-equilibration period using initial condition before the injection of the next sample. […]

O=C(O[C@@H]1Cc2c(O)cc(O)cc2O[C@@H]1c1cc(O)c(O)c(O)c1)c1cc(O)c(O)c(O)c1 [EGCG, epigallocatechin gallate]
relative reduction of total acidic variants content vs unsupplemented control: 29%-36%
